The test system of test [1] is ERYSIPHE GRAMINIS (BARLEY). Briefly: foliar fungal disease control test (Table III). Format: in vivo. The note with it: 100 ppm foliar spray plus root drench ca. 40 ppm a.i./dry soil; inoculated 24 hours before treatment. As for the experimental part: (§1) The compounds were tested against a variety of foliar fungal diseases of plants. The technique employed was as follows.
(§2) The plants were grown in John Innes Potting Compost (No 1 or 2) in 4 cm diameter minipots. The test compounds were formulated either by bead milling with aqueous Dispersol T or as a solution in acetone or acetone/ethanol which was diluted to the required concentration immediately before use. For the foliage diseases, the formulations (100 ppm active ingredient) were sprayed on to the foliage and applied to the roots of the plants in the soil. The sprays were applied to maximum retention and the root drenches to a final concentration equivalent to approximately 40 ppm a.i./dry soil. Tween 20, to give a final concentration of 0.05%, was added when the sprays were applied to cereals.
(§3) For most of the tests the compound was applied to the soil (roots) and to the foliage (by spraying) one or two days before the plant was inoculated with the disease. An exception was the test on Erysiphe graminis in which the plants were inoculated 24 hours before treatment. Foliar pathogens were applied by spray as spore suspensions onto the leaves of test plants. After inoculation, the plants were put into an appropriate environment to allow infection to proceed and then incubated until the disease was ready for assessment. The period between inoculation and assessment varied from four to fourteen days according to the disease and environment.
(§4) The disease control was recorded by the following grading: […]

In test [2] the test system is CERCOSPORA ARACHIDICOLA (PEANUT). Briefly: foliar fungal disease control test (Table III). The class given is in vivo. Particulars: 100 ppm foliar spray plus root drench ca. 40 ppm a.i./dry soil; 1-2 days before inoculation. The method, then:
as §1, §2, §3, §4

The subject of test [3] is PUCCINIA RECONDITA (WHEAT). Nature of the test: foliar fungal disease control test (Table III). Format: in vivo. Particulars: 100 ppm foliar spray plus root drench ca. 40 ppm a.i./dry soil; 1-2 days before inoculation. As for the experimental part: as §1, §2, §3, §4
A further test deals with […] (VINE). Briefly: foliar fungal disease control test (Table III). The note with it: 100 ppm foliar spray plus root drench ca. 40 ppm a.i./dry soil; 1-2 days before inoculation. The class given is in vivo, Plasmopara viticola. The method, then: as §1, §2, §3, §4
The next test relates to PH[…] (TOMATO). The class given is in vivo, Phytophthora infestans. The note with it: 100 ppm foliar spray plus root drench ca. 40 ppm a.i./dry soil; 1-2 days before inoculation.
Another test relates to […] (RICE). Format: in vivo, Pyricularia oryzae. Particulars: 100 ppm foliar spray plus root drench ca. 40 ppm a.i./dry soil; 1-2 days before inoculation.
In test [4] the test system is VENTURIA INAEQUALS (APPLE). Nature of the test: foliar fungal disease control test (Table III). Particulars: 100 ppm foliar spray plus root drench ca. 40 ppm a.i./dry soil; 1-2 days before inoculation. The class given is in vivo, Venturia inaequalis. The method, then: as §1, §2, §3, §4

Regarding `CO/C=C(/C(=O)OC)c1ncccc1Oc1ccccc1` [Compound 1, (E)-methyl 2-(3'-phenoxypyrid-2'-yl)-3-methoxyacrylate], the “disease control grading, ERYSIPHE GRAMINIS (BARLEY)” value (“disease control grading … (BARLEY)” below) in test [1] is 3 (trace-5% of disease on untreated plants). The “disease control grading, CERCOSPORA ARACHIDICOLA (PEANUT)” value (from here on “disease control grading … (PEANUT)”) in test [2] is 4. Also, the “disease control grading, PUCCINIA RECONDITA (WHEAT)” value (“disease control grading … (WHEAT)” for short) in test [3] is listed as 0 (60-100% of disease on untreated plants). In addition, the “disease control grading, […] (VINE)” value in test […] (VINE) is 0 (60-100% of disease on untreated plants). Also, the “disease control grading, PH[…] (TOMATO)” value in the test with PH[…] (TOMATO) is given as 0 (60-100% of disease on untreated plants). In test […] (RICE), the “disease control grading, […] (RICE)” value was 0 (60-100% of disease on untreated plants). Further, the “disease control grading, VENTURIA INAEQUALS (APPLE)” value (shortened to “disease control grading … (APPLE)”) in test [4] is given as 3 (trace-5% of disease on untreated plants).
With `CO/C=C(/C(=O)OC)c1cccnc1Oc1ccc(Cl)cc1` [Compound 16], the “disease control grading … (BARLEY)” value in test [1] was 4. For the same compound, the “disease control grading … (PEANUT)” value in test [2] is recorded as 4. Further, in test [3], the “disease control grading … (WHEAT)” value is recorded as 4. The “disease control grading, […] (VINE)” value in test […] (VINE) was 4. In addition, in the test with PH[…] (TOMATO), the “disease control grading, PH[…] (TOMATO)” value is 3 (trace-5% of disease on untreated plants). Besides, the “disease control grading, […] (RICE)” value in test […] (RICE) stood at 4. For the same compound, the “disease control grading … (APPLE)” value in test [4] was determined as 4.
As to `CO/C=C(/C(=O)OC)c1cccnc1Oc1ccc(Br)cc1` [Compound 18], the “disease control grading … (BARLEY)” value in test [1] is listed as 4. In addition, in test [2], the “disease control grading … (PEANUT)” value is 4. In test [3], the “disease control grading … (WHEAT)” value is 1 (26-59% of disease on untreated plants). Further, the “disease control grading, […] (VINE)” value in test […] (VINE) is given as 4. Besides, in the test on PH[…] (TOMATO), the “disease control grading, PH[…] (TOMATO)” value is listed as 0 (60-100% of disease on untreated plants). In addition, the “disease control grading, […] (RICE)” value in test […] (RICE) was 0 (60-100% of disease on untreated plants). In test [4], the “disease control grading … (APPLE)” value is on record as 4.
As for `CO/C=C(/C(=O)OC)c1cccnc1Oc1ccc(OC)cc1` [Compound 20], the “disease control grading … (BARLEY)” value in test [1] is on record as 4. In addition, in test [2], the “disease control grading … (PEANUT)” value was determined as 4. Also, the “disease control grading … (WHEAT)” value in test [3] was 4. Further, the “disease control grading, […] (VINE)” value in test […] (VINE) is reported as 4. Moreover, the “disease control grading, PH[…] (TOMATO)” value with PH[…] (TOMATO) is recorded as 0 (60-100% of disease on untreated plants). In addition, in test […] (RICE), the “disease control grading, […] (RICE)” value is 4. Also, in test [4], the “disease control grading … (APPLE)” value is 4.
As for `CO/C=C(/C(=O)OC)c1cccnc1Oc1ccc(C(F)(F)F)cc1` [Compound 21], the “disease control grading … (BARLEY)” value in test [1] was 4. For the same compound, in test [2], the “disease control grading … (PEANUT)” value is recorded as 4. Further, the “disease control grading … (WHEAT)” value in test [3] is recorded as 4. Also, the “disease control grading, […] (VINE)” value in test […] (VINE) turned out to be 4. In the test with PH[…] (TOMATO), the “disease control grading, PH[…] (TOMATO)” value is 3 (trace-5% of disease on untreated plants). The “disease control grading, […] (RICE)” value in test […] (RICE) is 0 (60-100% of disease on untreated plants). The “disease control grading … (APPLE)” value in test [4] is reported as 4.
With `CO/C=C(/C(=O)OC)c1cccnc1Oc1cccc(F)c1` [Compound 57], the “disease control grading … (BARLEY)” value in test [1] is on record as 4. The “disease control grading … (PEANUT)” value in test [2] is 4. Moreover, the “disease control grading … (WHEAT)” value in test [3] is reported as 4. In addition, the “disease control grading, […] (VINE)” value in test […] (VINE) was found to be 4. Moreover, the “disease control grading, PH[…] (TOMATO)” value with PH[…] (TOMATO) is listed as 3 (trace-5% of disease on untreated plants). Further, the “disease control grading, […] (RICE)” value in test […] (RICE) stood at 4. In addition, the “disease control grading … (APPLE)” value in test [4] was 4.
With `CO/C=C(/C(=O)OC)c1cccnc1Oc1cccc(C)c1` [Compound 58], in test [1], the “disease control grading … (BARLEY)” value is listed as 4. The “disease control grading … (PEANUT)” value in test [2] is given as 4. Also, the “disease control grading … (WHEAT)” value in test [3] is 4. Besides, the “disease control grading, […] (VINE)” value in test […] (VINE) was found to be 4. Besides, the “disease control grading, PH[…] (TOMATO)” value in the test with PH[…] (TOMATO) was 3 (trace-5% of disease on untreated plants). Moreover, the “disease control grading, […] (RICE)” value in test […] (RICE) stood at 4. Besides, the “disease control grading … (APPLE)” value in test [4] is listed as 4.
Turning to `CO/C=C(/C(=O)OC)c1cccnc1Oc1cc(Cl)cc(Cl)c1` [Compound 60], the “disease control grading … (BARLEY)” value in test [1] is given as 4. In test [2], the “disease control grading … (PEANUT)” value amounted to 4. Further, the “disease control grading … (WHEAT)” value in test [3] is recorded as 4. Moreover, in test […] (VINE), the “disease control grading, […] (VINE)” value is given as 4. For the same compound, the “disease control grading, PH[…] (TOMATO)” value with PH[…] (TOMATO) is 4. Also, in test […] (RICE), the “disease control grading, […] (RICE)” value stood at 4. Moreover, in test [4], the “disease control grading … (APPLE)” value came out at 4.
For `CO/C=C(/C(=O)OC)c1cccnc1OCc1ccccc1` [Compound 66], the “disease control grading … (BARLEY)” value in test [1] came out at 4. Also, in test [2], the “disease control grading … (PEANUT)” value was 1 (26-59% of disease on untreated plants). Moreover, in test [3], the “disease control grading … (WHEAT)” value is recorded as 0 (60-100% of disease on untreated plants). In test […] (VINE), the “disease control grading, […] (VINE)” value is on record as 2 (6-25% of disease on untreated plants). Also, the “disease control grading, PH[…] (TOMATO)” value with PH[…] (TOMATO) is on record as 0 (60-100% of disease on untreated plants). In addition, in test […] (RICE), the “disease control grading, […] (RICE)” value is 0 (60-100% of disease on untreated plants). Also, in test [4], the “disease control grading … (APPLE)” value stood at 4.
Regarding `CO/C=C(/C(=O)OC)c1cccnc1Oc1ccc(F)cc1F` [Compound 87], the “disease control grading … (BARLEY)” value in test [1] was determined as 4. Moreover, the “disease control grading … (PEANUT)” value in test [2] was determined as 4. In addition, the “disease control grading … (WHEAT)” value in test [3] was 3 (trace-5% of disease on untreated plants). Further, in test […] (VINE), the “disease control grading, […] (VINE)” value was 0 (60-100% of disease on untreated plants). Further, the “disease control grading, PH[…] (TOMATO)” value with PH[…] (TOMATO) is given as 0 (60-100% of disease on untreated plants). Besides, in test […] (RICE), the “disease control grading, […] (RICE)” value was 4. The “disease control grading … (APPLE)” value in test [4] is 4.
On to `CO/C=C(/C(=O)OC)c1cccnc1Oc1cc(F)cc(F)c1` [Compound 88], for which the “disease control grading … (BARLEY)” value in test [1] is 4. Further, the “disease control grading … (PEANUT)” value in test [2] is on record as 3 (trace-5% of disease on untreated plants). Moreover, in test [3], the “disease control grading … (WHEAT)” value amounted to 4. Further, the “disease control grading, […] (VINE)” value in test […] (VINE) is recorded as 4. The “disease control grading, PH[…] (TOMATO)” value in the test with PH[…] (TOMATO) came out at 4. Moreover, the “disease control grading, […] (RICE)” value in test […] (RICE) is on record as 2 (6-25% of disease on untreated plants). The “disease control grading … (APPLE)” value in test [4] is 4.
As for `CO/C=C(/C(=O)OC)c1ccccn1` [Compound 106], in test [1], the “disease control grading … (BARLEY)” value is given as 4. The “disease control grading … (PEANUT)” value in test [2] is reported as 0 (60-100% of disease on untreated plants). For the same compound, the “disease control grading … (WHEAT)” value in test [3] is listed as 0 (60-100% of disease on untreated plants). Moreover, in test […] (VINE), the “disease control grading, […] (VINE)” value is 0 (60-100% of disease on untreated plants). Also, the “disease control grading, […] (RICE)” value in test […] (RICE) is 0 (60-100% of disease on untreated plants). Also, the “disease control grading … (APPLE)” value in test [4] is recorded as 0 (60-100% of disease on untreated plants).

These data come from patent publication US4826531A (priority 1986, dated 1989).
